Laboratory results taken from patent US20040152786A1, “Preventive or remedy for diseases caused by cerebrovascular disturbances” (priority 2003, published 2004).

Tests used:
[1] = tested on: ischemic re-perfusion rat model; test: Infarct lesion area and volume, ischemic re-perfusion rat model; type: in vivo
Experimental: An influence of the cyclohexenone long-chain fatty alcoholic compound, which had been prepared in Preparation Example 2, on each of the area and volume of the infarct lesion was studied using an ischemic re-perfusion rat model.
The 8-week-old rats were occluded, at the middle brain artery thereof, with a nylon stopper for 2 hours, followed by intraperitoneal administration of the compound of Preparation Example 2 in amounts of 0.5 mg/kg, 2 mg/kg and 8 mg/kg, respectively, rightly before re-perfusion. After removal of the nylon stopper, re-perfusion was conducted. Twenty four hours after occlusion, the brain was enucleated and each of the area and volume of the infarct lesion was measured in a similar manner to Test 2.

[2] = tested on: middle-cerebral-artery permanently-occluded rat model; test: Infarct lesion area and volume, middle-cerebral-artery permanently-occluded rat model; type: in vivo
From the text: An influence of the cyclohexenone long-chain fatty alcoholic compound, which had been obtained in Preparation Example 2, on the area and volume of the infarct lesion caused by ischemia was studied using a middle-cerebral-artery permanently-occluded rat model.
The middle cerebral artery of an 8-week-old rat was electrically coagulated and occluded by a bipolar coagulator (MICRO-3D [Mizuho Co., Ltd.]). The compound obtained in Preparation Example 2 was intraperitoneally administered in an amount of 0.3 mg/kg, 2 mg/kg and 8 mg/kg rightly after the occlusion of the middle cerebral artery, respectively. After 24 hours, the brain was enucleated and cut into slices of 2 mm thick. Each slice was stained with 1% 2,3,5-triphenyltetrazolium chloride (TTC), followed by the taking of photos. The photograph was analyzed and the area of the infarct lesion was measured. The volume of the infarct lesion was calculated from the below-described equation. […]
a: infarct area (B+4) on the cross-section 4 mm forward from the forehead, b: infarct area (B+2) on the cross-section 2 mm forward from the forehead, c: infarct area (B) on the cross-section of the forehead, d: infarct area (B-2) on the cross-section 2 mm backward from the forehead, and e: infarct area (B-4) on the-cross-section 4 mm backward from the forehead.

[3] = 2 hours occlusion, intraperitoneal 0.5, 2 and 8 mg/kg rightly before re-perfusion, 24 hours after occlusion
[4] = intraperitoneal dose of 2 mg/kg

CC1=C(CCCCCCCCCCCCCCCO)C(C)(C)CCC1=O [Preparation Example 2, 3-(15-hydroxypentadecyl)-2,4,4-trimethyl-2-cyclohexen-1-one]
area of the infarct lesion [1, 3]: reduction | volume of the infarct lesion [1, 3]: reduction | brain protective action [1, 4]: marked brain protective action | volume of the infarct lesion ([2]; intraperitoneal 0.3, 2 and 8 mg/kg rightly after occlusion, after 24 hours, V=a+2(b+c+d)+e): reduction | area of the infarct lesion ([2]; intraperitoneal 0.3, 2 and 8 mg/kg rightly after occlusion, brain taken after 24 hours, TTC staining): reduction | brain protective action [2, 4]: marked brain protective action
